According to patent US20160297763A1, “Heteroaryl hydroxamic acid derivatives and their use in the treatment, amelioration or prevention of a viral disease” (priority 2011, published 2016):
Where two headings read alike, the source gives them in different places.

How the values were obtained:
[1] = target: PB2 cap binding domain (CBD) (Influenza A virus, UniProt Q9Q0V1); assay: biochemical; parameters: species or system avian H5N1 influenza virus
[2] = test system: influenza A virus A/Aichi/2/68 (H3N2); assay: Cytopathic effect (CPE) assay H3N2; type: cell-based, influenza A virus (H3N2) on MDCK cells; conditions: for inhibition at 10 µM: H3N2, activity conc 10 (μM per method); for inhibition at 20 µM: H3N2, activity conc 20 (μM per method); for inhibition at 2.5 µM: H3N2, activity conc 2.5 (μM per method)
Description: A possible measure of the […] antiviral activity of the compounds having the formula I or II is the CPE assay disclosed herein. […] In this connection, the reduction in the virus-mediated cytopathic effect (CPE) upon treatment with the compounds was calculated as follows: The cell viability of infected-treated and uninfected-treated cells was determined using an ATP-based cell viability assay (Promega). The response in relative luminescent units (RLU) of infected-untreated samples was subtracted from the response (RLU) of the infected-treated samples and then normalized to the viability of the corresponding uninfected sample resulting in % CPE reduction.
The influenza A virus (IAV) was obtained from American Tissue Culture Collection (A/Aichi/2/68 (H3N2); VR-547). Virus stocks were prepared by propagation of virus on Mardin-Darby canine kidney (MDCK; ATCC CCL-34) cells and infectious titres of virus stocks were determined by the 50% tissue culture infective dose (TCID50) analysis as described in Reed, L. J., and H. Muench. 1938, Am. J. Hyg. 27:493-497.
MDCK cells were seeded in 96-well plates at 2×10^4 cells/well using DMEM/Ham's F-12 (1:1) medium containing 10% foetal bovine serum (FBS), 2 mM L-glutamine and 1 antibiotics (all from PAA). Until infection the cells were incubated for 5 hrs at 37° C., 5.0 CO2 to form a ˜80% confluent monolayer on the bottom of the well. Each test compound was dissolved in DMSO and generally tested at 25 μM and 250 μM. In those cases where the compounds were not soluble at that concentration they were tested at the highest soluble concentration. The compounds were diluted in infection medium (DMEM/Ham's F-12 (1:1) containing 5 μg/ml trypsin, and 1% antibiotics) for a final plate well DMSO concentration of 1%. The virus stock was diluted in infection medium (DMEM/Ham's F-12 (1:1) containing 5 μg/ml Trypsin, 1% DMSO, and 1% antibiotics) to a theoretical multiplicity of infection (MOI) of 0.05.
After removal of the culture medium and one washing step with PBS, virus and compound were added together to the cells. In the wells used for cytotoxicity determination (i.e. in the absence of viral infection), no virus suspension was added. Instead, infection medium was added. Each treatment was conducted in two replicates. After incubation at 37° C., 5% CO2 for 48 hrs, each well was observed microscopically for apparent cytotoxicity, precipitate formation, or other notable abnormalities. Then, cell viability was determined using CellTiter-Glo luminescent cell viability assay (Promega). The supernatant was removed carefully and 65 μl of the reconstituted reagent were added to each well and incubated with gentle shaking for 15 min at room temperature. Then, 60 μl of the solution was transferred to an opaque plate and luminescence (RLU) was measured using Synergy HT plate reader (Biotek).
Relative cell viability values of uninfected-treated versus uninfected-untreated cells were used to evaluate cytotoxicity of the compounds. Substances with a relative viability below 80% at the tested concentration were regarded as cytotoxic and retested at lower concentrations.
Reduction in the virus-mediated cytopathic effect (CPE) upon treatment with the compounds was calculated as follows: The response (RLU) of infected-untreated samples was subtracted from the response (RLU) of the infected-treated samples and then normalized to the viability of the corresponding uninfected sample resulting in % CPE reduction.

PA-Nter = PA-Nter (Influenza A virus, UniProt P31343); assay: Biacore PA-Nter binding; conditions: activity conc 50
[3] = Influenza A virus, H3N2, activity conc 5 (μM per method), read-out: CPE H3N2 reduction (%)
[4] = Influenza A virus, H3N2, read-out: CPE H3N2 IC50
[5] = Influenza A virus, read-out: CPE H3N2 reduction (%)
[6] = Influenza A virus, H3N2, activity conc 25 (μM per method), read-out: CPE H3N2 reduction (%)
[7] = Influenza A virus, H3N2, activity conc 50 (μM per method), read-out: CPE H3N2 reduction (%)
[8] = Influenza A virus, H3N2, activity conc 2 (μM per method), read-out: CPE H3N2 reduction (%)
[9] = Influenza A virus, H3N2, read-out: CPE H3N2 reduction (%), activity conc 50 (μM per method)

PB2 cap binding domain (CBD), sequence (Q9Q0V1 318-483 limits assumed): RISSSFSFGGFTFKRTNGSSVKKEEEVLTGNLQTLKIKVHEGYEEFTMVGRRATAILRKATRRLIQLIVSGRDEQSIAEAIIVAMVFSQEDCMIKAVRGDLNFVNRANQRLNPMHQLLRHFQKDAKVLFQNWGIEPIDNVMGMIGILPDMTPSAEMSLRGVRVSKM

Row | Compound | Kd [1] | IC50 [2, 4] | other results
1 | CCONC(=O)c1cc(NCC2CCN(Cc3ccccc3)CC2)ccn1.Cl.Cl (hydrate or solvate) | – | – | melting point: 125 to 130 °C
2 | Cc1c(-c2ccccc2)sc2nc(N)[nH]c(=O)c12 [SAV-7475] | 4.6 µM | 21 µM | inhibition at 5 µM [2, 3]: 8.9%; Biacore PA-Nter Binding (RU) (PA-Nter): 13.16 RU
3 | Nc1nc2sc(Cc3ccccc3)cc2c(=O)[nH]1 [SAV-7517] | 13 µM | – | inhibition at 10 µM [2, 5]: -2.64%
4 | Cc1c(Cc2ccccc2)sc2nc(N)[nH]c(=O)c12 [SAV-7521] | 6 µM | – | inhibition at 25 µM [2, 6]: 33.6%
5 | Nc1nc2sc(-c3ccccc3)cc2c(=O)[nH]1 [SAV-7549] | 8.8 µM | – | inhibition at 50 µM [2, 7]: -2.4%
6 | COc1ccc(-c2sc3nc(N)[nH]c(=O)c3c2C)cc1 [SAV-7575] | 4 µM | – | inhibition at 20 µM [2, 5]: 9.02%
7 | Cc1c(-c2ccccc2)sc2nc(NCCO)[nH]c(=O)c12 [SAV-7577] | 6.8 µM | – | inhibition at 20 µM [2, 5]: 2.85%
8 | Cc1c(-c2ccc(Cl)cc2)sc2nc(N)[nH]c(=O)c12 [SAV-7579] | 0.27 µM | – | inhibition at 20 µM [2, 5]: 11.3%
9 | Cc1c(-c2cccc(Cl)c2)sc2nc(N)[nH]c(=O)c12 [SAV-7580] | 8.9 µM | – | IC50 ([2]; Influenza A virus, H3N2, read-out: CPE H3N2 IC50 [μM]): 11 µM; CPE H3N2 reduction (%) ([2]; activity conc 2 (μM per method)): 89.8%
10 | Cc1c(-c2cccc(C(F)(F)F)c2)sc2nc(N)[nH]c(=O)c12 [SAV-7581] | 1.4 µM | 17 µM | inhibition at 50 µM [2, 7]: 87.8%
11 | Cc1c(-c2ccccc2)sc2nc(NCCCO)[nH]c(=O)c12 [SAV-7582] | 4.2 µM | – | inhibition at 50 µM [2, 7]: 53.1%
12 | Cc1c(-c2ccccc2)sc2nc(NCCN(C)C)[nH]c(=O)c12 [SAV-7583] | 68 µM | – | –
13 | Cc1ccc(-c2sc3nc(N)[nH]c(=O)c3c2C)cc1 [SAV-7585] | 2 µM | 3.5 µM | inhibition at 2.5 µM [2, 5]: 28.9%
14 | Cc1c(-c2ccncc2)sc2nc(N)[nH]c(=O)c12 [SAV-7586] | 12 µM | 5.3 µM | inhibition at 15 µM ([2]; Influenza A virus, H3N2, activity conc 15 (μM per method), read-out: CPE H3N2 reduction (%)): 81.2%
15 | Cc1c(-c2cccnc2)sc2nc(N)[nH]c(=O)c12 [SAV-7589] | 10 µM | 27 µM | inhibition at 50 µM [2, 7]: 63.1%
16 | Cc1c(-c2cccc(C#N)c2)sc2nc(N)[nH]c(=O)c12 [SAV-7594] | 2 µM | 14 µM | inhibition at 5 µM [2, 3]: 14.5%
17 | Cc1ccccc1-c1sc2nc(N)[nH]c(=O)c2c1C [SAV-7596] | 11 µM | – | inhibition at 5 µM [2, 3]: 13.6%
18 | Cc1c(-c2ccccc2F)sc2nc(N)[nH]c(=O)c12 [SAV-7598] | 3.7 µM | – | inhibition at 2 µM [2, 8]: 11.4%
19 | Cc1c(-c2cccc(C(N)=O)c2)sc2nc(N)[nH]c(=O)c12 [SAV-7599] | 5.3 µM | – | inhibition at 20 µM [2, 5]: -0.7%
20 | Cc1c(-c2cc(C(F)(F)F)cc(C(F)(F)F)c2)sc2nc(N)[nH]c(=O)c12 [SAV-7600] | 3.8 µM | – | inhibition at 2 µM ([2]; Influenza A virus, H3N2, read-out: CPE H3N2 reduction (%), activity conc 2 (μM per method)): 5.8%
21 | Cc1c(-c2ccc(F)cc2)sc2nc(N)[nH]c(=O)c12 [SAV-7601] | 1.1 µM | – | inhibition at 50 µM [2, 7]: 69.2%
22 | Cc1c(-c2ccc(Cl)c(C#N)c2)sc2nc(N)[nH]c(=O)c12 [SAV-7602] | 1.7 µM | – | inhibition at 20 µM [2, 5]: 67.9%
23 | Cc1c(-c2cnn(C)c2)sc2nc(N)[nH]c(=O)c12 [SAV-7603] | 42 µM | – | –
24 | CC(c1ccccc1)c1cc2c(=O)[nH]c(N)nc2s1 (stereo not drawn) [SAV-7604] | 6.4 µM | – | inhibition at 20 µM [2, 5]: -4.7%
25 | CC1=C(c2cccc(F)c2)SC2N=C(N)NC(=O)C12 (stereo not drawn) [SAV-7606] | 8 µM | – | inhibition at 5 µM [2, 3]: 21.8%

Row | Compound | Kd [1] | IC50 [2, 4] | other results
26 | Cc1cccc(-c2sc3nc(N)[nH]c(=O)c3c2C)c1 [SAV-7607] | 5.4 µM | – | inhibition at 2 µM [2, 8]: -0.4%
27 | Cc1c(-c2cnccn2)sc2nc(N)[nH]c(=O)c12 [SAV-7608] | 5.7 µM | – | inhibition at 10 µM [2, 5]: 3.8%
28 | Cc1c(-c2ccc(F)c(C#N)c2)sc2nc(N)[nH]c(=O)c12 [SAV-7611] | 1.1 µM | – | inhibition at 2 µM [2, 8]: -1%
29 | Cc1c(-c2ccc(F)c(C(F)(F)F)c2)sc2nc(N)[nH]c(=O)c12 [SAV-7613] | 1.5 µM | – | inhibition at 50 µM [2, 7]: 2.5%
30 | Cc1c(C2=CCNCC2)sc2nc(N)[nH]c(=O)c12 [SAV-7614] | 190 µM | – | inhibition at 50 µM [2, 7]: 10.6%
31 | Cc1c(-c2cc(C#N)ccc2F)sc2nc(N)[nH]c(=O)c12 [SAV-7615] | 3 µM | 12 µM | inhibition at 20 µM [2, 5]: 59.2%
32 | Cc1c(-c2cccc(Cl)c2F)sc2nc(N)[nH]c(=O)c12 [SAV-7616] | 3.1 µM | 34 µM | inhibition at 10 µM [2, 5]: 68.7%
33 | Cc1c(-c2cc(C#N)ccc2Cl)sc2nc(N)[nH]c(=O)c12 [SAV-7617] | 2 µM | – | inhibition at 2 µM [2, 8]: 5.1%
34 | Cc1c(-c2ccc(Cl)cc2F)sc2nc(N)[nH]c(=O)c12 [SAV-7618] | 0.65 µM | 43 µM | inhibition at 50 µM [2, 7]: 77.4%
35 | COc1cc(-c2sc3nc(N)[nH]c(=O)c3c2C)ccc1Cl [SAV-7619] | 1.1 µM | – | inhibition at 2 µM [2, 8]: 3.4%
36 | Cc1c(-c2ccc(F)nc2F)sc2nc(N)[nH]c(=O)c12 [SAV-7621] | 70 µM | – | inhibition at 25 µM ([2]; Influenza A virus, H3N2, read-out: CPE H3N2 reduction (%), activity conc 25 (μM per method)): 14.3%
37 | Cc1c(-c2ccc(Cl)c(O)c2)sc2nc(N)[nH]c(=O)c12 [SAV-7622] | 2.4 µM | – | inhibition at 2 µM [2, 8]: 6.2%
38 | Cc1c(-c2ccc(Cl)c(F)c2)sc2nc(N)[nH]c(=O)c12 [SAV-7624] | 0.2 µM | 64 µM | –
39 | Cc1c(-c2ccnc(C(F)(F)F)c2)sc2nc(N)[nH]c(=O)c12 [SAV-7625] | 12 µM | – | inhibition at 2.5 µM [2, 5]: -4%
40 | Cc1c(-c2ccc(Cl)c(C(=O)N(C)C)c2)sc2nc(N)[nH]c(=O)c12 [SAV-7626] | 6.4 µM | – | inhibition at 25 µM [2, 6]: -4.6%
41 | Cc1c(-c2cccc(C#N)c2F)sc2nc(N)[nH]c(=O)c12 [SAV-7627] | 4.2 µM | 10 µM | inhibition at 50 µM [2, 7]: 71.2%
42 | Cc1c(-c2ccc(F)c(C#N)c2F)sc2nc(N)[nH]c(=O)c12 [SAV-7628] | 7.3 µM | 43 µM | inhibition at 50 µM [2, 7]: 84.3%
43 | Cc1c(-c2cccc(CN(C)C)c2)sc2nc(N)[nH]c(=O)c12 [SAV-7629] | 61 µM | 35 µM | inhibition at 50 µM [2, 7]: 38.3%
44 | Cc1c(-c2cc(CN(C)C)ccc2F)sc2nc(N)[nH]c(=O)c12 [SAV-7630] | 57 µM | – | inhibition at 50 µM [2, 9]: 23.2%
45 | Nc1nc2sc(-c3ccccc3)c(Br)c2c(=O)[nH]1 [SAV-7631] | 0.66 µM | – | inhibition at 5 µM ([2]; Influenza A virus, H3N2, read-out: CPE H3N2 reduction (%), activity conc 5 (μM per method)): 4%
46 | Cc1c(-c2ccc(Cl)nc2)sc2nc(N)[nH]c(=O)c12 [SAV-7632] | 0.75 µM | – | inhibition at 50 µM [2, 9]: 53%
47 | Cc1c(-c2ccnc(Cl)c2F)sc2nc(N)[nH]c(=O)c12 [SAV-7633] | 1.2 µM | 39 µM | inhibition at 50 µM [2, 7]: 63.1%
48 | Cc1c(-c2c(F)ccc(Cl)c2F)sc2nc(N)[nH]c(=O)c12 [SAV-7637] | 1.1 µM | 18 µM | inhibition at 5 µM [2, 3]: 1.5%
49 | Nc1nc2sc(-c3ccccc3)c(Cl)c2c(=O)[nH]1 [SAV-7639] | 1.8 µM | – | inhibition at 50 µM [2, 9]: 59.9%
